1 compound from patent US20160115225A1, “Methods of Reducing Methylglyoxal (MGO) Modification of Recombinant Proteins in Cell Culture” (AbbVie Inc., priority 2014, published 2016) can be followed below.

The subject of experiment [1] is adalimumab producing cell line 1. Nature of the experiment: Cell growth, viability and titer, bioreactor culture, cell line 1. Type of experiment: cell-based. As to conditions: Example 2; 2DDG 0.25 g/l; versus control. As to the method: For the bioreactor (3 L Applikon) experiments (Examples 1, 2 and 3), 3 L, bioreactors (1.5 L working volume) were initiated at 35° C. (cell line 1) and 36° C. (cell line 2), 30% DO, 200 rpm, pH of 7.1. In some of the conditions, pH was ramped down to 6.8 in three days and kept at pH 6.8 thereafter. The inclusion of pH ramp for a particular condition is indicated by the final pH in the experimental design. If the final pH is 7.1, then it indicates no pH ramp was performed, whereas if the final pH is 6.8, a pH ramp was performed on day 3 from pH 7.1 to pH 6.8. In some of the conditions, a temperature shift was performed. When temperature shift was performed, the temperature was lowered to 33° C. Again, the conditions where such a temperature shift was performed can be identified from the final temperature in the experimental design. Cultures were run in extended batch mode with the addition of a desired amount of 40% glucose stock solution was fed based on glucose measurements. […]
(§1) The cells were grown to maximum viable cell densities (VCD) in the range of 10-14×10^6 cells/ml for the different conditions tested. […] Samples were subsequently analyzed using Poros A for titer and WCX-10 post protein A purification. Based on the WCX-10 chromatograms, the percentages of total peak(s) area corresponding to the acidic species were quantified. […]

For experiment [2] the test system is unchanged. The experiment in a line: Lys-C peptide mapping for MGO modification of adalimumab, cell line 1. Type of experiment: cell-based. The following applies: Example 3.
From the text: Typical trypsin digestion for peptide mapping cleaves a denatured, reduced and alkylated protein at the carboxyl side of the two basic amino acids, lysine and arginine. Methylglyoxal (MGO) is a small molecule metabolite derived as a glycolysis byproduct which can modify arginine residues. A modification of an arginine prevents trypsin from cutting this site and results in a mis-cleavage. The challenge of quantifying the amount of MGO modified peptide is that, it is not compared to an equivalent non-modified peptide but rather to two parental cleaved peptides. The two parental cleaved peptides likely have different ionization potential as compared to that of the modified peptide. In order to determine a truly accurate direct measurement of an MGO-modified peptide, it is compared to its non-modified counterpart and expressed as a percentage. Using endoproteinase lysine-C as an alternative enzyme, cleavages only occur at lysine residues. The result is a direct comparison of the same peptide with and without an MGO modification, which provides a high degree of accuracy in quantifying even trace levels of the modified species.
Procedure: Samples were dilated to a nominal concentration of 4 mg/mL. 8 M guanidine-HCl was added to the sample in a 3:1 ratio resulting in a 1 mg/mL concentration in 6M guanidine-HCl. […] Samples were analyzed by LC/MS peptide mapping. […] Eluting peaks were monitored using a Thermo Scientific LTQ-Orbitrap Mass Spectrometer. Specific mass traces were extracted for both modified and non-modified peptides in order to accurately quantify the total amount of MGO modification at each site. Mass spectra were also analyzed for the specific region of the chromatogram to confirm the peptide identity.
as §1

Each structure is given as a SMILES string.

As for `O=CC[C@@H](O)[C@H](O)[C@H](O)CO` [Test 2DDG, 2-Deoxy-D-Glucose], the “cell growth and viability profile” value in experiment [1] is recorded as “slight increase”. The MGO modification in experiment [2] (2DDG 0.25 g/l alone, day 11 harvest, control 32.01%) was 18.03%; in experiment [2] (2DDG and temperature shift combined with arginine supplementation and/or lower pH), “substantial reduction”. Also, the MGO protein modification in experiment [2] (2DDG, temperature shift, lower pH and arginine supplementation all combined, day 11 harvest, control 32.01%) was 0.02%.
